{"source": "patent US8309596B2", "about": "“Kallikrein 7 modulators” (Novartis AG, priority 2007, dated 2012)", "key": {"swine": {"system": "swine", "assay": "Anti-inflammatory activity in swine model of allergic contact dermatitis (ACD), DNFB", "format": "in vivo", "procedure": "Eight days before the elicitation of the ACD, […] of 10% 2,4-dinitrofluorobenzene (DNFB, dissolved in DMSO/acetone/olive oil [1/5/3, v/v/v]) are applied epicutaneously in divided volumes onto the basis of both ears and onto both groins (100 μl/site) for sensitization. The challenge reactions are elicited with 15 μl of DNFB (1.0%) on contralateral test sites (each 7 cm^2 in size) of the shaved dorsolateral back. For treatment, the compound of example 11 (=Test compound 2) and the placebo (solvent only) are applied contralaterally to 2 test sites in each animal 0.5 and 6 hours after the challenge. The test sites are clinically examined 24 hours after the challenge when inflammation peaks. The changes are scored on a scale from 0 to 4 (Table XY), allowing a combined maximal score of 12 per designated site. Skin reddening is measured reflectometrically using a* values (see Table 3)"}, "Kallikrein-7": {"target": "Kallikrein-7 (Homo sapiens, UniProt P49862)", "sequence (P49862 30-253)": "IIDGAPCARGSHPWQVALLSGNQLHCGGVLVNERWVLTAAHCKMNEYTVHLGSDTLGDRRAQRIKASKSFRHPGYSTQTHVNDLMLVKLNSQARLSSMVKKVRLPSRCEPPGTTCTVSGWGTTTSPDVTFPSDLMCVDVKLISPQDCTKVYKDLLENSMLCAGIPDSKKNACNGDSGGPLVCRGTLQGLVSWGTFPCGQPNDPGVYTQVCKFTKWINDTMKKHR", "assay": "Kallikrein-7 inhibition, fluorescence-quenched substrate, determination of IC50 values", "format": "biochemical", "conditions": "pH 5.6, 1 hour preincubation, 0.2 nM protease, 2 μM substrate, room temperature", "procedure": "The fluorescence-quenched substrate Ac-Glu-Asp(EDANS)-Lys-Pro-Ile-Leu-Phe^Arg-Leu-Gly-Lys(DABCYL)-Glu-NH2 (where ^ indicates the scissile bond, identified by MS analysis) is purchased from Biosyntan (Berlin, Germany) and kept as a 5 mM stock solution in DMSO at −20° C. All other chemicals are of analytical grade.\nEnzymatic reactions are conducted in 50 mM sodium citrate buffer at pH 5.6 containing 150 mM NaCl and 0.05% (w/v) CHAPS.\nAll protein and peptide containing solutions are handled in siliconized tubes (Life Systems Design, Merenschwand, Switzerland). […]\nFor fluorescence intensity (FI) measurements an Ultra Evolution reader (TECAN, Maennedorf, Switzerland) is used. The instrument is equipped with a combination of a 350 nm (20 nm bandwidth) and a 500 nm (25 nm bandwidth) bandpath filter for fluorescence excitation and emission acquisition, respectively. […]\nFor the determination of IC50 values the assay is performed at room temperature in 384-well plates. […] The protease concentration in final assay solution is 0.2 nM (according to the enzyme concentrations determined by the Bradford method). […] The effect of the compound on the enzymatic activity is obtained from the linear progress curves and determined from two readings, the first one taken directly after the addition of substrate and the second one after 1 hour. […]"}, "hairless SKH1 mice": {"system": "hairless SKH1 mice", "assay": "Test on recovery of skin barrier disruption in mice (TEWL)", "format": "in vivo", "conditions": "10 mM", "procedure": "Method: Skin barrier disruption is achieved in groups of hairless SKH1 mice with repeated stripping of the skin with S-Sqame® skin sampling disks. The procedure is completed when transepidermal water loss (TEWL) achieved ≧[…]. TEWL is assessed with a Tewameter TM210 (Courage Khazaka, Cologne, Del.). Immediately after barrier disruption 30 μl of the compound of example 37(=Test compound 1) is applied at 10 mM concentration. Controls animals are treated similarly with the solvent (EtOH/propylene glycol, 3/7 (v/v)) alone. TEWL is measured before, immediately after, and at 3 hrs after barrier disruption. In each animal, the percentage recovery is calculated using the formula: (1−[TEWL at 3 hrs−base line TEWL]/[TEWL immediately after stripping−base line TEWL])×100%."}, "Crl:NMRI mice": {"system": "Crl:NMRI mice", "assay": "Anti-inflammatory activity in murine model of irritant contact dermatitis (ICD), TPA-induced", "format": "in vivo", "conditions": "for % Inhibition inflammatory swelling [Mean ± SEM values]: 10 μl topically 30 minutes prior to TPA challenge, auricular weight 6 hours after challenge, n 24", "procedure": "Method: Crl:NMRI mice are challenged with 10 μl 0.005% phorbol 12-myristat-13-acetate (TPA) on the inner surface of the right ear. The unchallenged left ears serve as normal controls and dermatitis is evaluated from the difference in auricular weight (taken as a measure of inflammatory swelling) 6 hours after the challenge. The animals are treated topically with 10 μl of the test compound 1 or the solvent 30 minutes prior to the challenge. The efficacy of the treatment is calculated as the percentage inhibition of inflammatory auricular swelling relative to animals treated with the vehicle alone."}}, "note": "Marks after values point to notes of the source that are not given here."}
{"smiles": "C#Cc1ccc2cccc(CNC(=O)N3CCC[C@H]3C(=O)NCc3cccnc3)c2c1", "note": "[Example 11, (S)-Pyrrolidine-1,2-dicarboxylic acid 1-[(7-ethynyl-naphthalen-1-ylmethyl)-amide] 2-[(pyridin-3-ylmethyl)-amide]]", "values": [{"measurement": "A* value (Mean, SD, n: 8), skin reddening measured reflectometrically", "setting": "swine; 1% solution applied 0.5 and 6 hours after challenge, 24 hours after challenge", "value": "7.7 (1.6)"}, {"measurement": "Clinical score (Mean, SD, n: 8)", "setting": "swine; 1% solution applied 0.5 and 6 hours after challenge, examined 24 hours after challenge, maximal score 12", "value": "4.1 (1.3)"}, {"measurement": "Inhibition vs placebo-treated sites, Clinical score", "setting": "swine; 1% solution, Mean, SD", "value": "42.4 (11.1)"}, {"measurement": "inhibition of clinical inflammatory changes", "setting": "swine; 1% solution, p<0.01", "value": 42, "unit": "%"}]}
{"smiles": "O=C(NCc1cccnc1)[C@@H]1[C@H]2C[C@H]2CN1C(=O)NCc1cccc2ccc(Cl)cc12", "note": "[Example 36, (1S,2S,5R)-3-aza-bicyclo[3.1.0]hexane-2,3-dicarboxylic acid 3-[(7-chloro-naphthalen-1-ylmethyl)-amide] 2-[(pyridin-3-ylmethyl)-amide]]", "values": [{"measurement": "IC50", "setting": "Kallikrein-7", "value": 3, "unit": "nM"}]}
{"smiles": "COc1ccc(CCNC(=O)[C@@H]2[C@H]3C[C@H]3CN2C(=O)NCc2cccc3ccc(Cl)cc23)cc1", "note": "[Example 37, (1S,2S,5R)-3-aza-bicycic[3.1.0]hexane-2,3-dicarboxylic acid 3-[(7-chloro-naphthalen-1-ylmethyl)-amide] 2-{[2-(4-methoxy-phenyl)-ethyl]-amide}]", "values": [{"measurement": "% Recovery in barrier disruption Mean (SD values)", "setting": "hairless SKH1 mice; 30 μl applied immediately after barrier disruption, TEWL at 3 hrs, n: 8 or 12 animals per group", "value": "76 (3.3)*** %"}, {"measurement": "acceleration of barrier repair compared to repair in mice treated with the solvent alone", "setting": "hairless SKH1 mice; single application, p<0.001", "value": "65-76%"}, {"measurement": "% Inhibition inflammatory swelling [Mean ± SEM values]", "setting": "Crl:NMRI mice; 10 mM", "value": "41 ± 5.3***^24%"}, {"measurement": "inhibition of inflammatory swelling", "setting": "Crl:NMRI mice; 20 mM concentrations as printed in text", "value": "54-73%"}, {"measurement": "% Inhibition inflammatory swelling [Mean ± SEM values]", "setting": "Crl:NMRI mice; 30 mM", "value": "73 ± 7.0***^24%"}]}
